Measured values as given in ChEMBL document CHEMBL5260845, “Flavone-based arylamides as potential anticancers: Design, synthesis and in vitro cell-based/cell-free evaluations” (2020).
Active and inactive are the calls of the source. The calls are words filed in the database; no cut-off is given here.

How the values were obtained:
U-251 = experiment: Antiproliferative activity against human U-251 cells assessed as cell growth inhibition at 10 uM by SRB assay relative to control; format: functional
NCI-H322M = experiment: Antiproliferative activity against human NCI-H322M cells assessed as cell growth inhibition at 10 uM by SRB assay; format: functional, cell-based
RXF 393 = experiment: Antiproliferative activity against human RXF 393 cells assessed as inhibition of cell growth at 10 uM by SRB assay relative to control; format: functional
HL-60 [1] = experiment: Antiproliferative activity against human HL-60 cells assessed as cell growth inhibition at 10 uM by SRB assay; format: functional, cell-based
IGROV-1 = experiment: Antiproliferative activity against human IGROV-1 cells assessed as cell growth inhibition at 10 uM by SRB assay relative to control; format: functional
HCT-15 = experiment: Antiproliferative activity against human HCT-15 cells assessed as cell growth inhibition at 10 uM by SRB assay; format: functional, cell-based
OVCAR-3 = experiment: Antiproliferative activity against human OVCAR-3 cells assessed as cell growth inhibition at 10 uM by SRB assay relative to control; format: functional; details: pooled result: one value given for 2 cell lines, strains, targets or settings
ACHN = experiment: Antiproliferative activity against human ACHN cells assessed as inhibition of cell growth at 10 uM by SRB assay relative to control; format: functional; details: pooled result: one value given for 2 cell lines, strains, targets or settings
SW-620 = experiment: Antiproliferative activity against human SW620 cells assessed as cell growth inhibition at 10 uM by SRB assay; format: functional, cell-based
HCC 2998 [2] = experiment: Antiproliferative activity against human HCC 2998 cells assessed as cell growth inhibition at 10 uM by SRB assay; format: functional, cell-based
EKVX = experiment: Antiproliferative activity against human EKVX cells assessed as cell growth inhibition at 10 uM by SRB assay; format: functional
COLO 205 [3] = experiment: Antiproliferative activity against human COLO 205 cells assessed as cell growth inhibition at 10 uM by SRB assay; format: functional, cell-based
HOP-92 = experiment: Antiproliferative activity against human HOP-92 cells assessed as cell growth inhibition at 10 uM by SRB assay; format: functional, cell-based
RPMI-8226 [4] = experiment: Antiproliferative activity against human RPMI-8226 cells assessed as cell growth inhibition at 10 uM by SRB assay relative to control; format: functional
HL-60 [5] = experiment: Antiproliferative activity against human HL-60 cells assessed as cell growth inhibition at 10 uM by SRB assay relative to control; format: functional
HOP-62 = experiment: Antiproliferative activity against human HOP-62 cells assessed as cell growth inhibition at 10 uM by SRB assay; format: functional, cell-based
UACC-62 = experiment: Antiproliferative activity against human UACC-62 cells assessed as cell growth inhibition at 10 uM by SRB assay relative to control; format: functional
NCI-H522 [6] = experiment: Antiproliferative activity against human NCI-H522 cells assessed as cell growth inhibition at 10 uM by SRB assay relative to control; format: functional
RPMI-8226 [7] = experiment: Antiproliferative activity against human RPMI-8226 cells assessed as cell growth inhibition at 10 uM by SRB assay; format: functional, cell-based
Renal cancer cell line = experiment: Antiproliferative activity against human renal cancer cells assessed as cell growth inhibition at 10 uM by SRB assay relative to control; format: functional
MDA-MB-435 = experiment: Antiproliferative activity against human MDA-MB-435 cells assessed as cell growth inhibition at 10 uM by SRB assay relative to control; format: functional
[8] = Antiproliferative activity against human colon cancer cells assessed as cell growth inhibition at 10 uM by SRB assay relative to control; format: functional; details: Colon carcinoma cell
Lung cancer cell line = experiment: Antiproliferative activity against human lung cancer cells assessed as cell growth inhibition at 10 uM by SRB assay relative to control; format: functional
SF-295 = experiment: Antiproliferative activity against human SF-295 cells assessed as cell growth inhibition at 10 uM by SRB assay relative to control; format: functional
SR = experiment: Antiproliferative activity against human SR cells assessed as cell growth inhibition at 10 uM by SRB assay; format: functional, cell-based
SK-MEL-5 = experiment: Antiproliferative activity against human SK-MEL-5 cells assessed as cell growth inhibition at 10 uM by SRB assay relative to control; format: functional
Breast carcinoma cell = experiment: Antiproliferative activity against human breast cancer cells assessed as cell growth inhibition at 10 uM by SRB assay relative to control; format: functional; details: pooled result: one value given for 3 cell lines, strains, targets or settings
NCI-H23 = experiment: Antiproliferative activity against human NCI-H23 cells assessed as cell growth inhibition at 10 uM by SRB assay; format: functional
786-0 = experiment: Antiproliferative activity against human 786-0 cells assessed as inhibition of cell growth at 10 uM by SRB assay relative to control; format: functional
OVCAR-8 = experiment: Antiproliferative activity against human OVCAR-8 cells assessed as cell growth inhibition at 10 uM by SRB assay relative to control; format: functional
NCI-H460 = experiment: Antiproliferative activity against human NCI-H460 cells assessed as cell growth inhibition at 10 uM by SRB assay; format: functional, cell-based
K562 = experiment: Antiproliferative activity against human K562 cells assessed as cell growth inhibition at 10 uM by SRB assay; format: functional, cell-based
Malme-3M = experiment: Antiproliferative activity against human Malme-3M cells assessed as cell growth inhibition at 10 uM by SRB assay relative to control; format: functional
SF-539 = experiment: Antiproliferative activity against human SF-539 cells assessed as cell growth inhibition at 10 uM by SRB assay relative to control; format: functional
CAKI-1 = experiment: Antiproliferative activity against human CAKI-1 cells assessed as inhibition of cell growth at 10 uM by SRB assay relative to control; format: functional
RPMI-8226 [9] = experiment: Antiproliferative activity against human RPMI-8226 cells assessed as cell growth inhibition by SRB assay; format: functional
[10] = Antiproliferative activity against human brain cancer cells assessed as cell growth inhibition at 10 uM by SRB assay relative to control; format: functional
A549 = experiment: Antiproliferative activity against human A549 cells assessed as cell growth inhibition at 10 uM by SRB assay; format: functional, cell-based
HCC 2998 [11] = experiment: Antiproliferative activity against human HCC 2998 cells assessed as cell growth inhibition at 10 uM by SRB assay relative to control; format: functional
NCI-H226 = experiment: Antiproliferative activity against human NCI-H226 cells assessed as cell growth inhibition at 10 uM by SRB assay; format: functional
COLO 205 [12] = experiment: Antiproliferative activity against human COLO 205 cells assessed as cell growth inhibition at 10 uM by SRB assay relative to control; format: functional
Melanoma cell line = experiment: Antiproliferative activity against human melanoma cells assessed as cell growth inhibition at 10 uM by SRB assay relative to control; format: functional
NCI-H522 [13] = experiment: Antiproliferative activity against human NCI-H522 cells assessed as cell growth inhibition at 10 uM by SRB assay; format: functional, cell-based
[14] = Antiproliferative activity against human hematologic cancer cells assessed as cell growth inhibition at 10 uM by SRB assay relative to control; format: functional
CCRF-CEM = experiment: Antiproliferative activity against human CCRF-CEM cells assessed as cell growth inhibition at 10 uM by SRB assay; format: functional, cell-based

COc1cc2oc(-c3cccc(C(=O)Nc4ccc(Cl)cc4)c3)cc(=O)c2c(OC)c1OC
inhibition at 10 µM (U-251): > 50% | inhibition (NCI-H322M): Active | inhibition at 10 µM (RXF 393): 129% | inhibition (HL-60 [1]): Active | inhibition at 10 µM (IGROV-1): 56.9% | inhibition (HCT-15): Active | inhibition at 10 µM (OVCAR-3): 56.9% | inhibition at 10 µM (ACHN): 61.4% | inhibition (SW-620): Active | inhibition (HCC 2998 [2]): Active | inhibition (EKVX): Active | inhibition (COLO 205 [3]): Active | inhibition (HOP-92): Active | inhibition at 10 µM (RPMI-8226 [4]): 82.6% | inhibition at 10 µM (HL-60 [5]): 111% | inhibition (HOP-62): Active | inhibition at 10 µM (UACC-62): 107% | inhibition at 10 µM (NCI-H522 [6]): 74.8% | inhibition (RPMI-8226 [7]): Active | inhibition at 10 µM (Renal cancer cell line): 82.9% | inhibition at 10 µM (MDA-MB-435): 62.5% | inhibition at 10 µM [8]: 61.5% | inhibition at 10 µM (Lung cancer cell line): 61.5% | inhibition at 10 µM (SF-295): 142% | inhibition (SR): Active | inhibition at 10 µM (SK-MEL-5): 107% | inhibition at 10 µM (Breast carcinoma cell): 61.5% | inhibition (NCI-H23): Active | inhibition at 10 µM (786-0): 88% | inhibition at 10 µM (OVCAR-8): 56.9% | inhibition (NCI-H460): Active | inhibition (K562): Active | inhibition at 10 µM (Malme-3M): 85.8% | inhibition at 10 µM (SF-539): > 50% | inhibition at 10 µM (CAKI-1): 91.8% | GI50 (RPMI-8226 [9]): 0.49 µM | inhibition at 10 µM [10]: 61.5% | inhibition (A549): Active | inhibition at 10 µM (HCC 2998 [11]): 77.4% | inhibition (NCI-H226): Active | inhibition at 10 µM (COLO 205 [12]): 98.3% | inhibition at 10 µM (Melanoma cell line): 102% | inhibition (NCI-H522 [13]): Active | inhibition at 10 µM [14]: 90% | inhibition (CCRF-CEM): Active

COc1cc2oc(-c3cccc(C(=O)Nc4ccc(C)cc4)c3)cc(=O)c2c(OC)c1OC
inhibition at 10 µM (U-251): > 50% | inhibition (NCI-H322M): Active | inhibition (RXF 393): Active | inhibition (HL-60 [1]): Active | inhibition at 10 µM (IGROV-1): 51.8% | inhibition (HCT-15): Active | inhibition at 10 µM (OVCAR-3): 51.8% | inhibition at 10 µM (ACHN): 55.7% | inhibition (SW-620): Active | inhibition (HCC 2998 [2]): Active | inhibition (EKVX): Active | inhibition (COLO 205 [3]): Active | inhibition (HOP-92): Active | inhibition at 10 µM (RPMI-8226 [4]): 82.6% | inhibition at 10 µM (HL-60 [5]): 92.7% | inhibition (HOP-62): Active | inhibition at 10 µM (UACC-62): 108% | inhibition at 10 µM (NCI-H522 [6]): 93.3% | inhibition (RPMI-8226 [7]): Active | inhibition at 10 µM (Renal cancer cell line): 72.5% | inhibition at 10 µM (MDA-MB-435): 70.1% | inhibition at 10 µM [8]: 72.5% | inhibition at 10 µM (Lung cancer cell line): 66.5% | inhibition at 10 µM (SF-295): 147% | inhibition (SR): Active | inhibition at 10 µM (SK-MEL-5): 108% | inhibition at 10 µM (Breast carcinoma cell): 53.4% | inhibition (NCI-H23): Active | inhibition at 10 µM (786-0): 55.7% | inhibition at 10 µM (OVCAR-8): 51.8% | inhibition (NCI-H460): Active | inhibition (K562): Active | inhibition at 10 µM (Malme-3M): 70.1% | inhibition at 10 µM (SF-539): > 50% | inhibition at 10 µM (CAKI-1): 97.8% | GI50 (RPMI-8226 [9]): 0.37 µM | inhibition at 10 µM [10]: 64.7% | inhibition (A549): Active | inhibition at 10 µM (HCC 2998 [11]): 50.1% | inhibition (NCI-H226): Active | inhibition at 10 µM (COLO 205 [12]): 82% | inhibition at 10 µM (Melanoma cell line): 95.9% | inhibition (NCI-H522 [13]): Active | inhibition at 10 µM [14]: 72.5% | inhibition (CCRF-CEM): Active
